Reference: US10897891B2, “Compositions and methods for prolonged cell storage” (Board of Regents, The University of Texas System, priority 2015, dated 2021)
“And” between values parts separate entries of the source, which are not always exact repeats. Equal values may be shown once.

Assays:
platelets = experiment: Platelet aggregation and shape after cold storage (microscopy, Experiment A); type: cell-based, human; settings: 2% final PEG-400, 5° C., 26 days, rotation 70 cycles per minute
Experimental: Photomicrographs were taken with a Nikon E400 microscope with an Insight 18.2 Color Camera and Spot 5.1 image capture software. No image adjustments were performed. Fluorescent microscopy was performed using a Leica DMIL photomicroscope and Leica LAS V3.8 image acquisition software. No post photographic image adjustments were made.
Platelets are known to change shape and show partial aggregation when chilled. The goal of the initial experiments was to see if this behavior changed when platelets were incubated in the presence of PEG-400. Two standard random donor platelet concentrates, type O, were mixed by connecting the bags, followed by gravity mixing 8 times. This mixture was equally divided by weight into the two original platelet bags and either 10 ml of PBS or 10 ml of PEG-400 in PBS was added to the control and test unit respectively. The final concentration of PEG-400 in the unit was 2%. These units were then gently rotated at 70 cycles per minute, with a 1 inch stroke length, at 5° C., over 26 days. At the end of this time aliquots were examined and photographed. • PBS Control 2% PEG-400 in PBS

[1] = test system: stored human platelets in thrombocytopenic CD-1 outbred mice; experiment: Platelet storage vs platelet function in a mouse model of thrombocytopenia (tail vein bleeding, blotter weight); type: in vivo; settings: for Weight of blood after tail vein cut, single animals: 1% PEG-400 in PBS, platelets stored at room temp.
Experimental: Fresh human platelets were obtained from the blood bank. These were pooled, mixed and divided twice to give 4 (new) platelet bags with 65 ml (+/−5 ml) in each. Next sterile PBS/PEG mixtures were made by adding filter sterilized PEG-400 (30% in PBS) serially diluting 1:4. (14 ml PBS+6 ml of PEG400=30% PEG, serially 1:4 diluted with PBS to give 7.5% PEG400, and 1.9% PEG400). Then, 10 ml of PBS or PBS/PEG was added into each platelet bag as follows: 10 ml PBS is 0 control=A; 10 ml of 1.9 is 0.25% peg final in platelets (a low dose tolerated by whole animal see below)=B; 10 ml of 7.5% gives 1% PEG-400 final (the max PEG400 dose tolerated by whole animal see below), =C; 10 ml of 30% gives 4% about 4 times the max dose tolerated in rhesus monkeys. Units were held at room temp 70 cycles/min, 1 inch stroke). The platelet units were confirmed to be negative for bacterial growth using 3 ml the platelet suspensions in Bactec blood culture bottles at 72 hr.
CD-1 outbred mice were obtained from Harlan Laboratories. All animals were pretreated with a 0.5 ml IP dose of 185 ug/mouse of filter sterilized fresh acetylsalicylic acid (aspirin) in PBS buffer. Fresh aspirin was used. Salicylate is the active metabolite responsible for most anti-inflammatory and analgesic effects; however, acetylsalicylate is the active moiety for the antiplatelet-aggregation effect and is rapidly hydrolyzed in water. On the following day all mice were given 3 U (heparin equivalents)/animal Lovenox (Enoxaparin Sodium Injection). After a 2 hr period for Lovenox to take full effect, the animals were given 100 ul platelets by IV tail vein injection, the platelets were allowed to circulate […] and the tail vein cut 1 cm from the tip with a new scapula for each animal. Bleeding was measured by collecting drops of blood for exactly 5 min on pre-weighed blotter paper Whatmen-40. The blotters were then weighed and these weights were compared using unpaired t test statistics. Platelets having an excessive amount of RBC in the units were sedimented under gravity in a 50 ml tube for 30 min and only the top 5 ml was harvested into a second 50 ml tube used for injection.)
Briefly, the animal model experiments were performed as follows. Fresh human platelets were obtained from a blood bank, consisting of 3 ABO ‘O’ units and 2 ABO ‘A’ units. These were pooled, mixed and divided twice to give 4 (new) platelet bags with 75 ml (+/−5 ml) in each. Next sterile PBS/PEG mixtures were made by adding filter sterilized PEG-400 (30% in PBS) serially diluting 1:4. (14 ml PBS+6 ml of PEG=30% PEG, serial ¼ diluted with PBS to give 7.5% PEG, and 1.9% PEG400). 10 ml of PBS or PBS/PEG was then added to each platelet bag as follows. […] Units were held at room temp 140 cycles/min, 0.5 inch stroke). The platelet units were confirmed as negative for bacterial growth using 3 ml in Bactec blood culture bottles at 72 hr.
CD-1 outbred mice were obtained from Harlan Laboratories. All animals were pretreated with a 0.5 ml IP dose of 185 μg/mouse of filter sterilized fresh acetylsalicylic acid in PBS buffer. On the following day all mice were given 3 U (heparin equivalents)/animal Lovenox. (Note: Aspirin was fresh. Salicylate is the active metabolite responsible for most anti-inflammatory and analgesic effects; however, acetylsalicylate is the active moiety for the antiplatelet-aggregation effect and is rapidly hydrolyzed in water. After a 2 hr period for Lovenox effect the animals were given 100 ul platelets by IV tail vein injection, the platelets were allowed to circulate 30 min and the tail vein cut 1 cm from tip with a new scapula for each animal. Bleeding was measured by collecting drops of blood for exactly 5 min on pre-weighed blotter paper Whatmen-40. The blotters were then weighed and these weights were compared using unpaired t test statistics. […]

[2] = dogs; cited from earlier work
[3] = primates, for 11 weeks; cited from earlier work

Polyethylene glycol [PEG-400]
platelet aggregation and rod shapes vs PBS control (platelets): control was observed to be more aggregated and to have more rod shapes than the PEG test platelets | Weight of blood after tail vein cut, mean (X) of combined data ([1]; 1% PEG-400, room temp. storage 11-13 days, N = 9): X = 0.043 grams | activity of stored platelets ([1]; 1% PEG-400, room temp. storage, day 11-13): active | clotting vs standard platelet storage condition ([1]; 1% PEG-400, room temp., combined day 11 and day 13 data): significantly more clotting | Weight of blood after tail vein cut, single animals ([1]; Mar. 11, 2014 group): .06 grams and .04 grams and .05 grams | Weight of blood after tail vein cut, single animals ([1]; Mar. 13, 2014 group): .05 grams and .03 grams and .02 grams | Weight of blood after tail vein cut, single animals ([1]; May 23, 2014 group): .04 grams (2×) and .06 grams | toxic endpoint [2]: ~8 g/kg | toxic endpoint for the whole animal [2]: 0.8% | tolerated level [3]: 0.4 % of body weight
